The values below come from ChEMBL document CHEMBL3045758, “Quantitative Structure-Activity Relationships of Fungicidal N-Phenylformamidoximes” (J Pestic Sci, 1992).

The subject of data set [1] is Botrytis cinerea. The data set can be described thus: Fungicidal activity against benzimidazole-resistant Botryotinia fuckeliana at 200 ppm after 48 hr by poisoned food technique. It is filed as functional.
Data set [2] has as its system Botrytis cinerea. The experiment in a line: Fungicidal activity against benzimidazole-resistant Botryotinia fuckeliana infected kidney bean leaf at 100 ppm after 7 days in greenhouse conditions by detached leaf test. It is filed as functional.
In data set [3] the test system is Botrytis cinerea. The data set can be described thus: Fungicidal activity against benzimidazole-resistant Botryotinia fuckeliana at 6.2 ppm after 48 hr by poisoned food technique. In kind it is functional.
The subject of data set [4] is Botrytis cinerea. The data set can be described thus: Fungicidal activity against benzimidazole-resistant Botryotinia fuckeliana at 25 ppm after 48 hr by poisoned food technique. It is filed as functional.
The test system of the next data set is Phaseolus vulgaris. The data set can be described thus: Phytotoxicity against Phaseolus vulgaris (kidney bean) assessed as necrosis of leaf at 100 ppm after 7 days in greenhouse conditions. It is filed as organism-based. To be noted: in vivo, 168 h.

Consider `CCO/N=C/Nc1ccccc1`, for which the Activity is on record as less than 25% in the data set with Botrytis cinerea [1]; less than 25% in the data set with Botrytis cinerea [2]; less than 25% with Botrytis cinerea [3]; less than 25% in the data set with Botrytis cinerea [4]; “Non-toxic” in the data set with Phaseolus vulgaris.

`CCO/N=C/Nc1ccccc1Cl`: the Activity in the data set on Botrytis cinerea [1] was 100%; in the data set with Botrytis cinerea [2], less than 25%; with Botrytis cinerea [3], less than 25%; in the data set on Botrytis cinerea [4], less than 25%; in the data set on Phaseolus vulgaris, “<= 10%”.

As to `CCO/N=C/Nc1cccc(Cl)c1`, the Activity is on record as 50% in the data set with Botrytis cinerea [1]; less than 25% with Botrytis cinerea [2]; less than 25% with Botrytis cinerea [3]; less than 25% with Botrytis cinerea [4]; “<= 10%” with Phaseolus vulgaris.

As for `CCO/N=C/Nc1ccc(Cl)cc1`, the Activity in the data set on Botrytis cinerea [1] is given as 70%; in the data set with Botrytis cinerea [2], less than 25%; in the data set with Botrytis cinerea [3], less than 25%; in the data set on Botrytis cinerea [4] it was less than 25%; in the data set with Phaseolus vulgaris it was “Non-toxic”.

As for `CCO/N=C/Nc1ccccc1CC`, the Activity was 100% in the data set with Botrytis cinerea [1]; less than 25% with Botrytis cinerea [2]; 26% in the data set with Botrytis cinerea [3]; 100% in the data set with Botrytis cinerea [4]; “Non-toxic” in the data set with Phaseolus vulgaris.

As to `CCO/N=C/Nc1cccc(CC)c1`, the Activity in the data set on Botrytis cinerea [1] is given as 70%; in the data set on Botrytis cinerea [2], less than 25%; with Botrytis cinerea [3], less than 25%; in the data set with Botrytis cinerea [4] it was less than 25%; with Phaseolus vulgaris it was “Non-toxic”.

On to `CCO/N=C/Nc1c(Cl)c(Cl)cc(Cl)c1Cl` [N'-ETHOXY-N-(2,3,5,6-TETRACHLOROPHENYL)FORMIMIDAMIDE], for which the Activity with Botrytis cinerea [1] was less than 25%; with Botrytis cinerea [2], less than 25%; with Botrytis cinerea [3], less than 25%; in the data set with Botrytis cinerea [4] it was less than 25%; in the data set on Phaseolus vulgaris, “Non-toxic”.

Turning to `CCO/N=C/Nc1cc(Cl)c(Cl)cc1Cl` [N'-ETHOXY-N-(2,4,5-TRICHLOROPHENYL)FORMIMIDAMIDE], the Activity in the data set with Botrytis cinerea [1] is on record as 26%; with Botrytis cinerea [2], less than 25%; with Botrytis cinerea [3], less than 25%; in the data set on Botrytis cinerea [4], less than 25%; with Phaseolus vulgaris, “Non-toxic”.

As to `CCO/N=C/Nc1c(Cl)cc(Cl)cc1Cl` [N'-ETHOXY-N-(2,4,6-TRICHLOROPHENYL)FORMIMIDAMIDE], the Activity with Botrytis cinerea [1] is given as 100%; in the data set on Botrytis cinerea [2], less than 25%; with Botrytis cinerea [3] it was less than 25%; in the data set on Botrytis cinerea [4], less than 25%; in the data set with Phaseolus vulgaris, 11%.

Take `CCO/N=C/Nc1cc(C)cc(C)c1OCC` [N'-ETHOXY-N-(2-ETHOXY-3,5-DIMETHYLPHENYL)FORMIMIDAMIDE]: the Activity in the data set with Botrytis cinerea [1] was 100%; with Botrytis cinerea [2] it was less than 25%; in the data set on Botrytis cinerea [3], 50%; in the data set on Botrytis cinerea [4], 100%; in the data set on Phaseolus vulgaris it was “Non-toxic”.

As to `CCO/N=C/Nc1cc(Cl)c(Cl)c(Cl)c1` [N'-ETHOXY-N-(3,4,5-TRICHLOROPHENYL)FORMIMIDAMIDE], the Activity with Botrytis cinerea [1] is 26%; in the data set on Botrytis cinerea [2], less than 25%; in the data set on Botrytis cinerea [3], less than 25%; in the data set with Botrytis cinerea [4], less than 25%; with Phaseolus vulgaris it was “Non-toxic”.

For `CCO/N=C/Nc1cc(OCC)c(OCC)c(OCC)c1` [N'-ETHOXY-N-(3,4,5-TRIETHOXYPHENYL)FORMIMIDAMIDE], the Activity in the data set with Botrytis cinerea [1] was 100%; in the data set on Botrytis cinerea [2], less than 25%; in the data set on Botrytis cinerea [3] it was less than 25%; in the data set on Botrytis cinerea [4], 26%; in the data set on Phaseolus vulgaris, “Non-toxic”.

Turning to `CCO/N=C/Nc1ccc(OCC)cc1C` [N'-ETHOXY-N-(4-ETHOXY-2-METHYLPHENYL)FORMIMIDAMIDE], the Activity with Botrytis cinerea [1] is less than 25%; in the data set on Botrytis cinerea [2], less than 25%; with Botrytis cinerea [3], less than 25%; in the data set on Botrytis cinerea [4] it was less than 25%; in the data set on Phaseolus vulgaris, “<= 10%”.
